In US6355608B1, “Detergent composition” (Shiseido Co., Ltd., priority 1998, dated 2002):

What was measured:
[1] = Foaming test with the shaking method; assay type: physicochemical
Procedure: (§1) 0.5 wt % of each sample in Table 1 was dissolved in ion exchanged water with 70 ppm calcium chloride already dissolved in it. […] This solution was kept at 30° C. put into a Nessler's tube with an inner diameter of 3 cm and a height of 20 cm equipped with a sliding plug, and then tilted 90 degrees every second using a pendulum type shaker. After one minute, the sample was taken out of the shaker and the foam height, the foam film thickness and the foam density were measured. The time required for the foam height to be reduced to a half of the original height was also measured. The foam film thickness was measured by taking a photograph of the foam using a microscope at 100 times magnification and calculating the average value on the photograph. The foam density was obtained by sampling 10 ml of the foam and measuring its weight.
as §1, with “Table 6” for “Table 1”, “30° C.,” for “30° C.”
as §1, with “Table 11” for “Table 1”, “30° C.,” for “30° C.”
as §1, with “sample” for “sample in Table 1”, “C.,” for “C.”, “weight. […]” for “weight.”

[2] = Lathering/foaming test: foam volume in a mixer with artificial dirt; assay type: physicochemical; conditions: mixtures of N-methyl taurate laurate and sodium laurate, total 100 mmol/L; 400 ml with 2g artificial dirt, stirred 60 seconds

| Compound | Foaming (in words) ([1]; pH 7) | Foaming (in words) ([1]; pH 4) | also measured |
| --- | --- | --- | --- |
| Sodium hydroxylaurate [Control sample 1] | harder to foam |  |  |
| CNCCS(=O)(=O)O [N-methyl taurine] |  |  | Lathering/foaming ability (foam volume, FIG. 6) [2]: good lathering/foaming ability |
| Potassium hydroxylaurate [Control sample 2] | harder to foam |  |  |
| Sodium hydroxylauryl ether carboxylate [Control sample 1] |  | harder to foam |  |
| Magnesium laurate [Control sample 3] | harder to foam |  |  |
| Potassium hydroxylauryl ether carboxylate [Control sample 2] |  | harder to foam |  |
